Measurements reported in patent US20140303090A1, “Smac Mimetic Therapy” (TETRALOGIC PHARMACEUTICALS CORPORATION, priority 2013, published 2014).
Like-named read-outs stand apart in the source and are kept apart here.

Experiments:
[1] = biological target: T1, GFP-cIAP2 (Homo sapiens, UniProt Q13489); assay: GFP-cIAP2 degradation assay (loss of GFP signal, flow cytometry); assay type: cell-based; settings: read-out: ΔGFP-cIAP2 EC50, 2 h; 2 h; A375 cells
T1 construct: expressed in transfected cells
Text: In this assay, treatment of GFP-cIAP-expressing melanoma cell line A375 with Smac mimetic, Compound 15, for two hours, results in degradation of cIAP-1 and cIAP-2 with concomitant loss of GFP-signal.

[2] = biological target: T2, ML-IAP BIR (Homo sapiens, UniProt Q96CA5); assay: Fluorescence polarization displacement assay, ML-IAP BIR
T2 sequence (Q96CA5 63-179 limits assumed): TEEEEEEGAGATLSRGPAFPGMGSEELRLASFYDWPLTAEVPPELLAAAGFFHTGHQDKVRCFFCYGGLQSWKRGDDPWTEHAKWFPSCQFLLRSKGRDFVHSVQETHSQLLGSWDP
Text: (§7) To establish protein-ligand binding affinity, we employed a fluorescence polarization assay. This assay monitored the displacement of an IAP binding motif (IBM)-containing peptide, Abu-RPFK(5-carboxyfluorescein)-NH2, from the Type III BIR domains of cIAP1, cIAP2, XIAP, and ML-IAP.

[3] = biological target: T1, GFP-cIAP2; assay: GFP-cIAP2 degradation assay (loss of GFP signal, flow cytometry); assay type: cell-based; settings: read-out: ΔGFP-cIAP2 EC50, 24 h
[4] = biological target: cIAP2 BIR3 (Homo sapiens, UniProt Q13489); assay: Fluorescence polarization displacement assay, cIAP2 BIR3
Text: as §7

[5] = biological target: cIAP1-BUCR dimer (Homo sapiens, UniProt Q13490); assay: Co-immunoprecipitation of differentially-tagged cIAP1-BUCR constructs
[6] = Tolerability; settings: in vivo
Text: . Binding of IAP antagonists to cIAP1 proteins induces a conformational rearrangement that exposes the RING domain. Once exposed, the RING domain dimerizes and E3 ubiquitin ligase activity is activated. Using a range of assays that evaluated cIAP1 stability; NF-κB activation; cIAP1 oligomeric state; […]. Birinapant-induced loss of cIAPs correlated with inhibition of TNF-mediated NF-κB activation, caspase activation, tumor cell killing, and tumor regression. Birinapant was well-tolerated. […]. […]; (ii.) decreased affinity for XIAP BIR3; (iii.) decreased ability to inhibit XIAP-dependent NOD signaling, despite its activity in an XIAP-dependent caspase-3 activation assay; and, (iv.) decreased pro-inflammatory IL-1β secretion. […]

[7] = system: TNF-mediated NF-κB-luc
[8] = biological target: XIAP BIR3 (Homo sapiens, UniProt P98170); assay: Fluorescence polarization displacement assay, XIAP BIR3
Text: as §7

[9] = biological target: T3, GFP-cIAP1 (Homo sapiens, UniProt Q13490); assay: GFP-cIAP1 degradation assay (loss of GFP signal, flow cytometry); assay type: cell-based
T3 construct: expressed in transfected cells

[10] = biological target: T4, cIAP1-BUCR (Homo sapiens, UniProt Q13490); assay: MALLS-SEC analysis of the oligomeric state of cIAP1-BUCR
Text: With 2 as a positive control, we used MALLS-SEC analysis to characterize the oligomeric state of cIAP1-BUCR in the presence of 1, the mono-D-Abu epimer (3), and the bis-D-Abu diastereomer (4).

[11] = system: MDP-mediated NF-κB-luc (NOD2); assay: MDP-stimulated NF-kB luciferase reporter gene assay (NOD2 signaling) in HCT116 cells; assay type: cell-based, human
Experimental: (§1) To assay effects on XIAP E3 ubiquitin ligase activity manifested as NF-kB activation, we established both DAP- and MDP-stimulated luciferase reporter gene assays in which Smac mimetics are evaluated in cells at a single 10 μM drug concentration. Specifically, we developed stable cell lines with HCT116 cells (human colon cancer) that carry the NF-kB-luciferase reporter gene under the regulation of NF-kB promoter activation elements. The assay was carried out as follows: • 1. HCT116 (3-3) cells were cultured in white wall 96-wells plate (50,000 cells/50 μL/well) for overnight at 37° C. • 2. […] The luciferase activity in each well was measured by using Steady-Glo® Luciferase Assay System (Promega Corp.). 48 μL of luminescence detection reagent was added in each well, followed by brief agitation. The plate was left in dark for 15 minutes and then the luminescence activity was measured by using microplate reader Victor2 (PerkinElmer Life and Analytical Science, Shelton, Conn.). • 4. Calculation:
(§2) Luciferase activity in no ligand (i.e., […]) treatment wells=background (BG)
(§3) Luciferase activity in ligand only treatment wells=positive control (PC)
(§4) Luciferase activity in Smac mimetic (SM)+ligand treatment wells=Test • i) Test<PC
(§5) Inhibitory activity by SM(%)=100×[(PC−Test)/(PC−BG)] • ii) Test>PC
(§6) Activation by SM(%)=100×[(Test−BG)/(PC−BG)]

[12] = system: WT murine BMDMs; assay: IL-1β secretion from LPS-primed WT bone marrow-derived macrophages; assay type: cell-based; settings: 24 h
Text: Given the heightened activity of 2 versus 1 on cIAP2, we speculated that the improved tolerability of 1 might also be associated with reduced antagonism of XIAP functional activity in this system. We thus evaluated a selection of Smac-mimetics in both LPS-primed wild-type (WT) and XIAP knockout (Xiap^−/−) murine BMDMs to assess their capacity to induce the secretion of IL-1β following treatment with Smac-mimetic (FIG. 4).
WT and Xiap^−/− BMDMs were primed with LPS±the indicated concentration of Smac-mimetics for 24 h. WT BMDM results are presented as the mean±SEM (n=3 biological independent repeats). […] Total levels of IL-1β induced by Smac-mimetics in these assays varied but the trend was identical.

[13] = system: Xiap−/− murine BMDMs; assay: IL-1β secretion from LPS-primed XIAP knockout bone marrow-derived macrophages; assay type: cell-based; settings: 24 h
Experimental: We thus evaluated a selection of Smac-mimetics in both LPS-primed wild-type (WT) and XIAP knockout (Xiap^−/−) murine BMDMs to assess their capacity to induce the secretion of IL-1β following treatment with Smac-mimetic (FIG. 4).
WT and Xiap^−/− BMDMs were primed with LPS±the indicated concentration of Smac-mimetics for 24 h. WT BMDM results are presented as the mean±SEM (n=3 biological independent repeats).

[14] = biological target: T4, cIAP1-BUCR; assay: cIAP1 auto-ubiquitylation in vitro (Ub transfer by cIAP1-BUCR)
Text: To assess the E3 ligase activity of IAP antagonist-induced cIAP1-BUCR dimers, we monitored cIAP1 auto-ubiquitylation in vitro.

[15] = system: DAP-mediated NF-κB-luc (NOD1); assay: DAP-stimulated NF-kB luciferase reporter gene assay (NOD1 signaling) in HCT116 cells; assay type: cell-based, human
Experimental: as §1, §2, §3, §4, §5, §6

[16] = biological target: cIAP1 BIR3 (Homo sapiens, UniProt Q13490); assay: Fluorescence polarization displacement assay, cIAP1 BIR3
Text: as §7

[17] = 10 μM Smac mimetic, HCT116 cells

T3 sequence (Q13490 whole entry): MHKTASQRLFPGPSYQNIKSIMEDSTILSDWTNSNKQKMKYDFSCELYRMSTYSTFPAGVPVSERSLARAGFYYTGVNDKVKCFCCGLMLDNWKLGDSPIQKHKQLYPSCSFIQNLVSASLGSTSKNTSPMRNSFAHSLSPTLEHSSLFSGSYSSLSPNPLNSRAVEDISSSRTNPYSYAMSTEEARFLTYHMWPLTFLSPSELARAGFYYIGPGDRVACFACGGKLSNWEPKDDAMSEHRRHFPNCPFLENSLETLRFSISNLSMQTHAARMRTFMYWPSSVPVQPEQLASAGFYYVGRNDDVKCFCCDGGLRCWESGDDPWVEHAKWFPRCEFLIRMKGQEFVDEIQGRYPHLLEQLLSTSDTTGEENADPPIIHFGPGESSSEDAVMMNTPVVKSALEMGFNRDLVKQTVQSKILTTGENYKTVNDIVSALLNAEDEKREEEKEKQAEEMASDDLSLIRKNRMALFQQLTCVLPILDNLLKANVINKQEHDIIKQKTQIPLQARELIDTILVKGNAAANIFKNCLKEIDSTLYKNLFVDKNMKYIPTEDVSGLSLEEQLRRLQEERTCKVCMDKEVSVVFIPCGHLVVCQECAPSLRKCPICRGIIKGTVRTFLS
T1 sequence (Q13489 whole entry): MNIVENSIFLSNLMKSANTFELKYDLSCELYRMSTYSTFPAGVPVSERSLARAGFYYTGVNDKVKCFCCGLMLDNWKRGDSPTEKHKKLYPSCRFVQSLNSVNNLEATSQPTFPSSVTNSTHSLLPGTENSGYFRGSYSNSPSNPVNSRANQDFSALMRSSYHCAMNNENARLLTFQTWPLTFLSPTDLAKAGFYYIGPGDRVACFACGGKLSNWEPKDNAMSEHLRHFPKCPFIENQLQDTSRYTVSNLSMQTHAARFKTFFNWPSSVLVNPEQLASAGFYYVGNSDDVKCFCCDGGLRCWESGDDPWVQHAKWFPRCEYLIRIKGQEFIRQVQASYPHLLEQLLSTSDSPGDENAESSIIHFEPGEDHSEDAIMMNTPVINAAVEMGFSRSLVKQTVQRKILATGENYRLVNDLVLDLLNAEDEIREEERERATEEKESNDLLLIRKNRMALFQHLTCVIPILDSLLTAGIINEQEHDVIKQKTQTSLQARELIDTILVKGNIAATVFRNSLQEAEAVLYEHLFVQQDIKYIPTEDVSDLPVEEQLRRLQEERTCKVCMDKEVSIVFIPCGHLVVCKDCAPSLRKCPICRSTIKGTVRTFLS
T4 sequence (Q13490 260-618 limits assumed): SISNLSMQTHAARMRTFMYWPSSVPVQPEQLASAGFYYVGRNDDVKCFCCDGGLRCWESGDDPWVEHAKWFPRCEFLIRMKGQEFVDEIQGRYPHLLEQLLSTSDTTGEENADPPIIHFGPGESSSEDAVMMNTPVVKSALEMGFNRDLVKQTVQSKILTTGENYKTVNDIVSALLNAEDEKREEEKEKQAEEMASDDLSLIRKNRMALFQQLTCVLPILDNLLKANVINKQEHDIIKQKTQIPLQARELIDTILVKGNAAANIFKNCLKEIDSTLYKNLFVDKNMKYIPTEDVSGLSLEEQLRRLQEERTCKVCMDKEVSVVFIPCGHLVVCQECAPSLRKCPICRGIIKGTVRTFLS
XIAP BIR3, sequence (P98170 241-356 limits assumed): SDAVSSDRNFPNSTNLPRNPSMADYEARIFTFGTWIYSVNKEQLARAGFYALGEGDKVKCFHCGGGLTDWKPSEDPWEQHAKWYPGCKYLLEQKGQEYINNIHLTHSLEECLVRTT
cIAP2 BIR3, sequence (Q13489 238-349 limits assumed): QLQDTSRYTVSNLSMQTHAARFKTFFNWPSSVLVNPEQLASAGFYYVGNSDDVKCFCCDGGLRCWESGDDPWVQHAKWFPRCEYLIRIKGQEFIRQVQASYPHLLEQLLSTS
cIAP1-BUCR dimer, sequence (Q13490 260-618 limits assumed): as the sequence (Q13490 260-618 limits assumed) above
cIAP1-BUCR dimer, sequence (Q13490 260-618 limits assumed): as above
cIAP1 BIR3, sequence (Q13490 253-363 limits assumed): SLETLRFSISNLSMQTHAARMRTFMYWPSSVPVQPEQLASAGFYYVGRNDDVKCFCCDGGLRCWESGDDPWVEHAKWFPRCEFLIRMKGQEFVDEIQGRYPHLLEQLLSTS

## CN[C@@H](C)C(=O)N[C@H](C(=O)N1CCC[C@H]1Cc1c(-c2ccc(-c3c(C[C@@H]4CCCN4C(=O)[C@@H](NC(=O)[C@H](C)NC)C(C)(C)C)c4ccc(F)cc4n3CCO)cc2)n(CCO)c2cc(F)ccc12)C(C)(C)C [Compound A (2), reference compound]
[1]
  DC50: 43 ± 17 nM
[2]
  Ki: ~1 nM
[3]
  DC50: 27 ± 17 nM
[4]
  Ki: ~1 nM
[5]
  co-IP of Flag-tagged cIAP1-BUCR with mbw-tagged cIAP1-BUCR: allowed the co-IP
[6]
  tolerability: poorly tolerated
[7]
  EC50: 8 ± 2 nM
[8]
  Ki: ~1 nM
[9]; read-out: ΔGFP-cIAP1 EC50, 2 h, 2 h, A375 cells
  DC50: 13 ± 5 nM
[9]; read-out: ΔGFP-cIAP1 EC50, 24 h, 24 h
  DC50: 4 ± 2 nM
[10]
  cIAP1-BUCR dimerization: formation of the higher molecular weight cIAP1-BUCR dimer
[11]; [17]
  Inhibition of MDP-mediated NF-κB-luc, % Inhibition: 99 (+/−1) %
[11]; @ 2 h
  Inhibition of MDP-mediated NF-KB-luc @ 2 h, % Inhibition: 99 ± 1%
[12]
  IL-1β secretion from LPS-primed WT BMDMs: capable of inducing IL-1β secretion
[13]
  IL-1β secretion in Xiap−/− BMDMs: induced IL-1β secretion
[14]
  Ub transfer by cIAP1-BUCR (auto-ubiquitylation): increased
[15]; [17]
  Inhibition of DAP-mediated NF-κB-luc, % Inhibition: 98 (+/−1) %
[15]; @ 2 h
  Inhibition of DAP-mediated NF-KB-luc @ 2 h, % Inhibition: 98 ± 1%
[16]
  Ki: ~1 nM
